Experimental data reported in PubChem BioAssay AID1963982 (Molecular Pharmacology Branch, DTP, NCI, 2024).

Test system: 313798-341-R-J2-PDC spheroids, viability
Assay: Anticancer human tumor 313798-341-R-J2-PDC patient-derived cervical squamous cell carcinoma cell line growth inhibition [PI3K]
Details: spheroids with HUVEC and MSC; for IC50: curve of first compound; for viability, T/C: stronger effect = lower value
From the text: Combinatorial screen of targeted agents with the PI3K inhibitors inavolisib, alpelisib, duvelisib, and copanlisib in multi-cell type tumor spheroids
A high-throughput screen of multi-cell type tumor spheroids was designed to identify active combinations of targeted small molecules and PI3K pathway inhibitors. Complex spheroids include a stromal component modeled by human endothelial cells (HUVEC) and fibroblasts modeled by human mesenchymal stem cells (MSCs). The concentration ranges selected for each drug and investigational agent were based upon clinically achievable concentrations if the clinical Cmax of the agent was known.
Compounds. The drugs and investigational agents: inavolisib (NSC800729), alpelisib (NSC765974), duvelisib (NSC772469), copanlisib (NSC816437), ipatasertib (NSC767898), afuresertib (NSC778305), talazoparib (NSC767125), sapanisertib (NSC764658), selumetinib (NSC741078), tovorafenib (DAY101, NSC766906), vemurafenib (NSC761431), ravoxertinib (NSC781343), sotorasib (NSC818433), MRTX1133 (NSC 836407), abemaciclib (NSC 768073), palbociclib (NSC758247), venetoclax (NSC 766270), SY5609 (NSC837396), enzalutamide (NSC755605), and darolutamide (NSC825331), were obtained from the National Cancer Institute (NCI) Developmental Therapeutics Program Chemical Repository. The FDA-approved anticancer drug set is available from the NCI Developmental Therapeutics Program. […] The stock solutions were prepared in dimethyl sulfoxide (DMSO, Sigma-Aldrich, St. Louis, MO, cat. D2650) at 800-fold the tested concentration and stored at -70 degrees C prior to their use. All drugs and investigational agents were tested over a range starting from a high concentration at or near the clinical Cmax and decreasing in half-log increments. If the clinical Cmax for an agent had not been determined, the highest concentration tested was 10 microM.
Cell Culture. All cells were maintained in an incubator at 37 degrees C and 5% CO2 with 95% humidity. The PDC lines were cultured according to standard operating procedures established by the NCI PDMR (https://pdmr.cancer.gov/sops/default.htm). All PDCs were thawed and cultured in Matrigel-coated flasks prepared with a working solution of 1X Ham's F-12 nutrient mix, without supplementation (Invitrogen, Waltham, MA, cat. 11765054), 100 U/mL penicillin-streptomycin (Invitrogen, cat. 15140122), and 2.5% Matrigel (Corning Inc., Corning, NY, cat. 354248) for the first three passages. The 354836-022-R-J1-PDC, 475296-252-R-J1-PDC, and 997726-040-R-J2-PDC lines were cultured in 6A media, which includes advanced DMEM/F-12 (Thermo Fisher Scientific, cat. 12634028), 10 mM HEPES (Thermo Fisher Scientific, cat. 15630080), 1X GlutaMAX supplement (Thermo Fisher Scientific, cat. 35050061), 0.1 mg/mL primocin (InvivoGen, San Diego, CA, cat. ant-pm-2), 10% defined fetal bovine serum, heat inactivated (HyClone Laboratories Inc., Logan, UT, cat. SH30070.03HI), 50% L-WRN conditioned media (ATCC, cat. CRL-3276), 1.25 mM N-Acetyl-L-cysteine (Sigma-Aldrich, cat. A9165), 10 mM nicotinamide (Sigma-Aldrich, cat. N0636), 1X B-27 supplement (Thermo Fisher Scientific, cat. 17504044), 1X N-2 supplement (Thermo Fisher Scientific, cat. 17502048), and 10 microM Y-27632 dihydrochloride (Tocris Bioscience, Bristol, United Kingdom, cat. 1254). The 624824-186-R-J2-PDC line was cultured in 6C/Colon 1B media, which includes all 6A media components plus 50 ng/mL human EGF recombinant protein (Thermo Fisher Scientific, cat. PHG0311). […]
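Note: spheroids exposed to compounds for seven days.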
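Throughout, for viability, T/C: 100% = DMSO vehicle control viability.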

## CNC(=O)c1ccc(N2C(=S)N(c3ccc(C#N)c(C(F)(F)F)c3)C(=O)C2(C)C)cc1F + CC(Nc1ccc2c(c1)OCCn1cc(N3C(=O)OCC3C(F)F)nc1-2)C(N)=O
Second compound 0.00316 µM
  IC50: > 10 µM
Second compound 0.01 µM
  IC50: > 10 µM
Second compound 0.0316 µM
  IC50: > 10 µM
Second compound 0.1 µM
  IC50: > 10 µM
Second compound 0.316 µM
  IC50: > 10 µM
Second compound 1 µM
  IC50: 3.72 µM
Second compound 0.00316 µM, first compound 0.0316 µM
  viability, T/C: 99.8%
Second compound 0.00316 µM, first compound 0.1 µM
  viability, T/C: 87%
Second compound 0.00316 µM, first compound 0.316 µM
  viability, T/C: 89.7%
Second compound 0.00316 µM, first compound 1 µM
  viability, T/C: 101%
Second compound 0.00316 µM, first compound 3.16 µM
  viability, T/C: 99.3%
Second compound 0.00316 µM, first compound 10 µM
  viability, T/C: 88.2%
Second compound 0.01 µM, first compound 0.0316 µM
  viability, T/C: 103%
Second compound 0.01 µM, first compound 0.1 µM
  viability, T/C: 94.8%
Second compound 0.01 µM, first compound 0.316 µM
  viability, T/C: 97.6%
Second compound 0.01 µM, first compound 1 µM
  viability, T/C: 91.3%
Second compound 0.01 µM, first compound 3.16 µM
  viability, T/C: 101%
Second compound 0.01 µM, first compound 10 µM
  viability, T/C: 90%
Second compound 0.0316 µM, first compound 0.0316 µM
  viability, T/C: 93.3%
Second compound 0.0316 µM, first compound 0.1 µM
  viability, T/C: 101%
Second compound 0.0316 µM, first compound 0.316 µM
  viability, T/C: 102%
Second compound 0.0316 µM, first compound 1 µM
  viability, T/C: 92.8%
Second compound 0.0316 µM, first compound 3.16 µM
  viability, T/C: 97.5%
Second compound 0.0316 µM, first compound 10 µM
  viability, T/C: 90.1%
Second compound 0.1 µM, first compound 0.0316 µM
  viability, T/C: 97.7%
Second compound 0.1 µM, first compound 0.1 µM
  viability, T/C: 92%
Second compound 0.1 µM, first compound 0.316 µM
  viability, T/C: 91.9%
Second compound 0.1 µM, first compound 1 µM
  viability, T/C: 91.7%
Second compound 0.1 µM, first compound 3.16 µM
  viability, T/C: 87.5%
Second compound 0.1 µM, first compound 10 µM
  viability, T/C: 77.6%
Second compound 0.316 µM, first compound 0.0316 µM
  viability, T/C: 82.7%
Second compound 0.316 µM, first compound 0.1 µM
  viability, T/C: 75.8%
Second compound 0.316 µM, first compound 0.316 µM
  viability, T/C: 79.7%
Second compound 0.316 µM, first compound 1 µM
  viability, T/C: 70.2%
Second compound 0.316 µM, first compound 3.16 µM
  viability, T/C: 62.2%
Second compound 0.316 µM, first compound 10 µM
  viability, T/C: 60.2%
Second compound 1 µM, first compound 0.0316 µM
  viability, T/C: 50.2%
Second compound 1 µM, first compound 0.1 µM
  viability, T/C: 59.6%
Second compound 1 µM, first compound 0.316 µM
  viability, T/C: 53%
Second compound 1 µM, first compound 1 µM
  viability, T/C: 51.1%
Second compound 1 µM, first compound 3.16 µM
  viability, T/C: 51.8%
Second compound 1 µM, first compound 10 µM
  viability, T/C: 44.7%
